Data set [1] in a line: Lyophilisation solubility assay (Lysa). The data set is classed as physicochemical. The conditions noted are these: phosphate buffer, pH 6.5, aqueous buffer, thermodynamic from solid. Put shortly: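 Duplicate samples from 10 mM DMSO stocks are dried, redissolved in 0.05 M phosphate buffer pH 6.5, stirred 1 h, shaken 2 h and left overnight. Filtrate and its 1/10 dilution are quantified by direct UV or HPLC-UV, giving solubility in μg/mL.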

Data set [2] in a line: Mouse SDPK (single dose PK in male ICR mouse, plasma and liver). The data set is classed as in vivo. The conditions noted are these: male ICR mice; for bioavailability / AUC(0-inf) / clearance: mouse; for bioavailability: 1 mg/kg IV, 3 mg/kg PO, read-out: F (bioavailability); for clearance: read-out: Plasma Cl (IV). Here is the method: The single dose PK in male ICR mouse was performed to assess their pharmacokinetic properties. Two groups of animals were dosed via either bolus intravenous (IV) or oral gavage (PO) of the respective compound. The animals for oral administration were fasted overnight prior to dosing and food was resumed 4 hours postdose. Blood samples (approximately 400 μL) were collected via cardiac puncture after euthanasia by carbon dioxide inhalation at 2 mins, 5 mins, 15 mins, 30 mins, 1 h, 2 hrs, 4 hrs, 6 hrs, 8 hrs, and 24 hrs postdose for IV group, and at 5 mins, 15 mins, 30 mins, 1 h, 2 hrs, 4 hrs, 6 hrs, 8 hrs, and 24 hrs postdose for PO group. Blood samples were placed into tubes containing sodium heparin and centrifuged at 8000 rpm for 6 minutes at 4° C. to separate plasma from the samples. Following centrifugation, the resulting plasma was transferred to clean tubes for bioanalysis on LC/MS/MS. The pharmacokinetic parameters were calculated using non-compartmental module of WinNonlin® Professional 5.2.

A short description of data set [3]: Metabolic stability study in human microsome. In kind it is in vitro ADME. Put shortly:
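Human liver microsomes (0.5 mg/mL) with 1 μM compound in 100 mM phosphate pH 7.4 at 37 °C, started with 1 mM NADPH or an NADPH-regenerating system. Samples taken at 0, 3, 6, 9, 15 and 30 min, quenched in methanol. Parent remaining measured by LC-MS/MS; no-cofactor controls included.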

The test system of data set [4] is HBV. The data set can be described thus: Anti-HBV activity in vitro in HepG2.2.15 cells (extracellular HBV DNA by qPCR). The data set is classed as cell-based, Hepatitis B virus. The following applies: HepG2.2.15 cells, in-house data, read-out: EC50. Put shortly:
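HepG2.2.15 cells, which constitutively produce HBV, were seeded overnight and then treated for 5 days with half-log serially diluted compounds at 0.5% final DMSO. Extracellular HBV DNA in culture supernatant was extracted and quantified by qPCR.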

Data set [5] can be described thus: Cytotoxicity (CC50) in HepDE19 cells, CCK-8 cell viability. The conditions noted are these: human, HepDE19 cells; read-out: CC50. The data set is classed as cell-based. In outline:
(§1)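 HBV-transfected HepG2-derived HepDE19 cells grown in DMEM-F12 with 10% FBS and G418. Viability read five days after treatment by CCK-8, 2 h at 37 °C, absorbance at 450 and 630 nm.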

Data set [6] deals with HBV. The data set can be described thus: Selectivity index (CC50 value/EC50 value). The data set is classed as cell-based, Hepatitis B virus. Put shortly: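 Ratio of CC50 to EC50, measuring antiviral activity against HBV relative to cytotoxicity in vitro; higher values indicate greater separation between viral inhibition and cell death.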
In data set [7] the test system is HBV. The conditions noted are these: literature data, Deres K. et al. Science 2003, 893-896; cited from earlier work.
The conditions of data set [8]: literature data, Deres K. et al. Science 2003, 893-896; cited from earlier work.
The next data set relates to HepDE19 cells. Description: Cytotoxicity (CC50) in HepDE19 cells, CCK-8 cell viability. The data set is classed as cell-based. In outline: as §1
The mark [9] stands for this setting: plasma, dose 1 mg/kg IV, read-out: Plasma AUC(0-∞) (IV).
Where [10] appears, read: plasma, dose 3 mg/kg PO, read-out: Plasma AUC(0-∞) (PO).

In brackets after ≈: the same amount, converted by molar mass. Read-outs that look alike come from different tables or passages of the source. Marks after values point to notes of the source that are not given here.

On to `COC(=O)C1=C(CN2CC(F)(F)C[C@H]2C(=O)O)NC(c2nccs2)=N[C@H]1c1ccc(F)cc1Cl` [Example 2, (R)-6-((S)-2-Carboxy-4,4-difluoro-pyrrolidin-1-ylmethyl)-4-(2-chloro-4-fluoro-phenyl)-2-thiazol-2-yl-1,4-dihydro-pyrimidine-5-carboxylic acid methyl ester], for which the thermodynamic solubility (commonly solubility found after equilibrating the solid with the medium) in data set [1] is above 698 µg/mL. Moreover, the “Liver AUC(0-∞) (PO)” value in data set [2] (dose 3 mg/kg PO) was 18000 ng·h/mL. Besides, the bioavailability – broadly, dose-corrected exposure relative to a reference, in per cent – in [2] (plasma) was found to be 94%. The AUC(0-inf) in data set [2] (setting [9]) is 995 ng·h/mL; in [2] (setting [10]) it was 2790 ng·h/mL. Further, the clearance in [2] (plasma, dose 1 mg/kg IV) amounted to 17 mL/min/kg. In [3], the “Human Hepatic Clearance” value was 3.65 mL/min/kg. Besides, in the data set on HBV [4] (Hepatitis B virus), the EC50 (usually the concentration at which the effect is half-maximal) came out at 2.7 nM. Moreover, the 50% cytotoxic concentration (CC50) (as a rule, the concentration at which the toxic effect on the cells reaches its halfway point) at 5 days in [5] is 85000 nM. Besides, in the data set on HBV [6], the “Selectivity index (CC50/EC50)” value was 31481.

As for `COC(=O)C1=C(C)NC(c2ncc(F)cc2F)=N[C@H]1c1ccc(F)cc1Cl` [Bay 41-4109, reference compound], the EC50 in the data set on HBV [7] was 50 nM; in the data set on HBV [4], 87 nM. Further, the “F (bioavailability)” value in data set [2] (plasma, 5 mg/kg IV, 30 mg/kg PO) is reported as 21%; in [8] it was “(31^1) %”. The “Plasma AUC(0-∞) (IV)” value in [2] (plasma, dose 5 mg/kg IV) was 1380 ng·h/mL. For the same compound, the “Plasma Cl (IV)” value in [2] (plasma, dose 5 mg/kg IV) is recorded as 60 mL/min/kg; in data set [8], “(67^1) mL/min/kg”. In data set [2] (plasma, dose 30 mg/kg PO), the “Plasma AUC(0-∞) (PO)” value came to 1740 ng·h/mL.

For `COC(=O)C1=C(CN2CCOC[C@H]2C(=O)O)NC(c2nc(C)cs2)=N[C@H]1c1ccc(F)cc1Cl` [Example 17, (S)-4-[(R)-6-(2-Chloro-4-fluoro-phenyl)-5-methoxycarbonyl-2-(4-methyl-thiazol-2-yl)-3,6-dihydro-pyrimidin-4-ylmethyl]-morpholine-3-carboxylic acid], the solubility (thermodynamic) in data set [1] was above 673 µg/mL. The “Human Hepatic Clearance” value in data set [3] is recorded as 0.74 mL/min/kg. Besides, in the data set with HBV [4] (Hepatitis B virus), the EC50 amounted to 7 nM. This compound had a CC50 in the data set on HepDE19 cells above 100000 nM. Also, the “Selectivity index (CC50/EC50)” value with HBV [6] was above 14286.

As to `COC(=O)C1=C(CN2CCO[C@H](C)[C@H]2C(=O)O)NC(c2nccs2)=N[C@H]1c1ccc(F)cc1Cl` [Example 104, (2R,3S)-4-[(R)-6-(2-Chloro-4-fluoro-phenyl)-5-methoxycarbonyl-2-thiazol-2-yl-3,6-dihydro-pyrimidin-4-ylmethyl]-2-methyl-morpholine-3-carboxylic acid], the thermodynamic solubility in [1] is above 667 µg/mL. The “Human Hepatic Clearance” value in data set [3] came out at 5.42 mL/min/kg. Also, the EC50 in the data set on HBV [4] (Hepatitis B virus) came out at 7 nM. Also, the CC50 in the data set with HepDE19 cells was above 100000 nM. For the same compound, the “Selectivity index (CC50/EC50)” value in the data set on HBV [6] was above 14286.

For the compound `COC(=O)C1=C(CN2CC(F)(F)C[C@H]2C(=O)O)NC(c2nc(C)cs2)=N[C@H]1c1ccc(F)cc1Cl` [Example 16, (R)-6-((S)-2-Carboxy-4,4-difluoro-pyrrolidin-1-ylmethyl)-4-(2-chloro-4-fluoro-phenyl)-2-(4-methyl-thiazol-2-yl)-1,4-dihydro-pyrimidine-5-carboxylic acid methyl ester], in [1], the thermodynamic solubility is above 622 µg/mL. For the same compound, in [2] (dose 3 mg/kg PO), the “Liver AUC(0-∞) (PO)” value was 35200 ng·h/mL. Besides, in data set [2] (plasma), the bioavailability worked out at 69%. Besides, the AUC(0-inf) in data set [2] (setting [9]) was 290 ng·h/mL; in [2] (setting [10]), 598 ng·h/mL. The clearance in [2] (plasma, dose 1 mg/kg IV) stood at 57 mL/min/kg. Also, the “Human Hepatic Clearance” value in [3] amounted to 6.35 mL/min/kg. For the same compound, in the data set with HBV [4] (Hepatitis B virus), the EC50 worked out at 2 nM. The 50% cytotoxic concentration (CC50) at 5 days in data set [5] was 30000 nM. Moreover, the “Selectivity index (CC50/EC50)” value in the data set on HBV [6] amounted to 15000.

In [1], `CCOC(=O)C1=C(CN2CCOC[C@H]2C(=O)O)NC(c2nccs2)=N[C@H]1c1ccc(F)cc1Cl` [Example 31, (S)-4-[(R)-6-(2-Chloro-4-fluoro-phenyl)-5-ethoxycarbonyl-2-thiazol-2-yl-3,6-dihydro-pyrimidin-4-ylmethyl]-morpholine-3-carboxylic acid] had a solubility (thermodynamic) of 630 µg/mL (≈ 1240 µM). The “Human Hepatic Clearance” value in data set [3] was 4.68 mL/min/kg. The EC50 in the data set on HBV [4] (Hepatitis B virus) stood at 2 nM. The same compound yielded a half-maximal cytotoxic concentration (CC50) in the data set on HepDE19 cells above 100000 nM. In the data set on HBV [6], the “Selectivity index (CC50/EC50)” value is on record as above 50000.

For the compound `CCOC(=O)C1=C(CN2CCOC[C@H]2C(=O)O)NC(c2nccs2)=N[C@H]1c1cccc(F)c1Cl` [Example 63, (S)-4-[(R)-6-(2-Chloro-3-fluoro-phenyl)-5-ethoxycarbonyl-2-thiazol-2-yl-3,6-dihydro-pyrimidin-4-ylmethyl]-morpholine-3-carboxylic acid], in [1], the solubility (thermodynamic) was above 679 µg/mL. The “Human Hepatic Clearance” value in data set [3] was determined as 1.71 mL/min/kg. For the same compound, the EC50 with HBV [4] (Hepatitis B virus) is 0.8 nM. The CC50 in the data set on HepDE19 cells is above 100000 nM. Moreover, the “Selectivity index (CC50/EC50)” value in the data set with HBV [6] is listed as above 125000.

Turning to `COC(=O)C1=C(CN2CCOC[C@H]2C(=O)O)N=C(c2nccs2)N[C@H]1c1ccc(F)cc1Cl` [Example 5, (S)-4-[(R)-6-(2-Chloro-4-fluoro-phenyl)-5-methoxycarbonyl-2-thiazol-2-yl-3,6-dihydro-pyrimidin-4-ylmethyl]-morpholine-3-carboxylic acid], the thermodynamic solubility in data set [1] was above 660 µg/mL. In addition, the “Liver AUC(0-∞) (PO)” value in [2] (dose 3 mg/kg PO) stood at 11800 ng·h/mL. The “Plasma AUC(0-∞) (PO)” value in data set [2] (plasma, dose 3 mg/kg PO) amounted to 962 ng·h/mL. Moreover, the bioavailability in [2] (plasma) was 37%. In addition, in [2] (setting [9]), the AUC(0-inf) was 878 ng·h/mL. Besides, the clearance in data set [2] (plasma, dose 1 mg/kg IV) came out at 19 mL/min/kg. In data set [3], the “Human Hepatic Clearance” value is on record as 2.7 mL/min/kg. In the data set with HepDE19 cells, this compound gave a CC50 above 100000 nM.

These data come from patent publication US9447086B2, “6-amino acid heteroaryldihydropyrimidines for the treatment and prophylaxis of hepatitis B virus infection” (priority 2012, dated 2016).
